Experimental findings from the NIST ThermoML archive (doi:10.1021/je0497294) are described below.

Each structure is given as a SMILES string. Values joined by “and” are separate entries in the source; they are usually repeats but may differ in a detail not shown here. Identical values can stand only once. Numbers after ± are expanded uncertainties.

Series [1] in a line: xn = mol fraction of the nth substance listed. As to conditions: 298.15 K, Pendant drop shape.
The conditions of series [2]: 298.15 K; for surface tension liquid-gas: Pendant drop shape; for mass density: 101.33 kPa, Liquid.

With `Cc1cc(C)cc(C)c1` [1,3,5-trimethylbenzene] + C[S+](C)[O-], the surface tension liquid-gas amounted to 28.09 ± 0.31 mN/m in series [1] (x2 = 0); 27.3 ± 0.3 mN/m in series [1] (x2 = 0.1023); 26.92 ± 0.3 mN/m in series [1] (x2 = 0.1987); 26.7 ± 0.3 mN/m in series [1] (x2 = 0.3027); 27.41 ± 0.3 mN/m in series [1] (x2 = 0.401); 28.4 ± 0.31 mN/m in series [1] (x2 = 0.4999). In addition, the surface tension liquid-gas in series [1] (x2 = 0.6003) came out at 30.09 ± 0.33 mN/m; in series [1] (x2 = 0.699) it was 32.05 ± 0.34 mN/m; in series [1] (x2 = 0.8003) it was 34.77 ± 0.37 mN/m; in series [1] (x2 = 0.8998) it was 37.92 ± 0.39 mN/m.
In the case of `ClC(Cl)(Cl)Cl` [tetrachloromethane] + Cc1cc(C)cc(C)c1, the surface tension liquid-gas amounted to 28.09 ± 0.3 mN/m in series [1] (x2 = 0); 27.77 ± 0.3 mN/m in series [1] (x2 = 0.1009); 27.53 ± 0.3 mN/m in series [1] (x2 = 0.2014); 27.29 ± 0.3 mN/m in series [1] (x2 = 0.2994); 27.1 ± 0.3 mN/m in series [1] (x2 = 0.4007); 26.99 ± 0.3 mN/m in series [1] (x2 = 0.4998). Also, the surface tension liquid-gas in series [1] (x2 = 0.5995) amounted to 26.91 ± 0.3 mN/m; in series [1] (x2 = 0.6988), 26.86 ± 0.3 mN/m; in series [1] (x2 = 0.797), 26.83 ± 0.3 mN/m; in series [1] (x2 = 0.9012), 26.81 ± 0.3 mN/m.
As to `Cc1ccc(C)c(C)c1` [1,2,4-trimethylbenzene] + C1CCOC1, the surface tension liquid-gas is listed as 29.25 ± 0.33 mN/m in series [1] (x2 = 0); 29.11 ± 0.32 mN/m in series [1] (x2 = 0.0988); 29 ± 0.32 mN/m in series [1] (x2 = 0.2018); 28.88 ± 0.31 mN/m in series [1] (x2 = 0.3003); 28.73 ± 0.31 mN/m in series [1] (x2 = 0.3995); 28.53 ± 0.3 mN/m in series [1] (x2 = 0.5002). The surface tension liquid-gas in series [1] (x2 = 0.6005) turned out to be 28.29 ± 0.3 mN/m; in series [1] (x2 = 0.6986) it was 28.01 ± 0.3 mN/m; in series [1] (x2 = 0.7996), 27.68 ± 0.29 mN/m; in series [1] (x2 = 0.9006), 27.34 ± 0.29 mN/m.
On to `Cc1ccc(C)c(C)c1` [1,2,4-trimethylbenzene] + ClC(Cl)(Cl)Cl, for which the surface tension liquid-gas in series [1] (x2 = 0) was determined as 29.25 ± 0.33 mN/m; in series [1] (x2 = 0.0496), 29.13 ± 0.32 mN/m; in series [1] (x2 = 0.0996) it was 29.04 ± 0.32 mN/m; in series [1] (x2 = 0.1986), 28.89 ± 0.32 mN/m; in series [1] (x2 = 0.3001) it was 28.72 ± 0.32 mN/m; in series [1] (x2 = 0.4006), 28.5 ± 0.31 mN/m. For the same compound, the surface tension liquid-gas in series [1] (x2 = 0.5987) is 28.24 ± 0.31 mN/m; in series [1] (x2 = 0.6986) it was 27.89 ± 0.3 mN/m; in series [1] (x2 = 0.7985), 27.54 ± 0.3 mN/m; in series [1] (x2 = 0.9011), 27.13 ± 0.29 mN/m.
As for `Cc1cc(C)cc(C)c1` [1,3,5-trimethylbenzene], in series [2], the surface tension liquid-gas is 28.09 ± 0.31 mN/m and 26.76 ± 0.3 mN/m; the mass density was 861.03 ± 0.38 kg/m3.
For the compound `Cc1cc(C)cc(C)c1` [1,3,5-trimethylbenzene] + C1CCOC1, the surface tension liquid-gas in series [1] (x2 = 0) stood at 28.09 ± 0.31 mN/m; in series [1] (x2 = 0.0481), 27.88 ± 0.31 mN/m; in series [1] (x2 = 0.2021) it was 27.72 ± 0.3 mN/m; in series [1] (x2 = 0.3002), 27.57 ± 0.3 mN/m; in series [1] (x2 = 0.4), 27.44 ± 0.3 mN/m; in series [1] (x2 = 0.5004), 27.32 ± 0.29 mN/m. Further, the surface tension liquid-gas in series [1] (x2 = 0.601) is 27.23 ± 0.29 mN/m; in series [1] (x2 = 0.7003), 27.15 ± 0.29 mN/m; in series [1] (x2 = 0.7989) it was 27.09 ± 0.29 mN/m; in series [1] (x2 = 0.9) it was 27.06 ± 0.29 mN/m.
On to `C[S+](C)[O-]` [dimethyl sulfoxide] + Cc1cc(C)cc(C)c1, for which the surface tension liquid-gas in series [1] (x1 = 1) worked out at 42.09 ± 0.43 mN/m.
For `ClC(Cl)(Cl)Cl` [tetrachloromethane], in series [2], the surface tension liquid-gas was 27.76 ± 0.3 mN/m and 26.76 ± 0.29 mN/m and 28.09 ± 0.3 mN/m; the mass density came to 1583.8 ± 0.76 kg/m3.
Turning to `C1CCOC1` [tetrahydrofuran], in series [2], the surface tension liquid-gas is reported as 27.04 ± 0.29 mN/m and the mass density was determined as 882.06 ± 0.21 kg/m3.
For `Cc1ccc(C)c(C)c1` [1,2,4-trimethylbenzene] + C[S+](C)[O-], the surface tension liquid-gas in series [1] (x2 = 0) amounted to 29.25 ± 0.33 mN/m; in series [1] (x2 = 0.1007), 28.48 ± 0.32 mN/m; in series [1] (x2 = 0.2007), 28.77 ± 0.32 mN/m; in series [1] (x2 = 0.3007), 28.81 ± 0.32 mN/m; in series [1] (x2 = 0.3995), 29.1 ± 0.32 mN/m; in series [1] (x2 = 0.501) it was 29.46 ± 0.32 mN/m. Also, the surface tension liquid-gas came to 29.34 ± 0.32 mN/m in series [1] (x2 = 0.6012), 29.35 ± 0.32 mN/m in series [1] (x2 = 0.6992), 30.04 ± 0.33 mN/m in series [1] (x2 = 0.7992) and 35.71 ± 0.38 mN/m in series [1] (x2 = 0.9013).
Regarding `C1CCOC1` [tetrahydrofuran] + Cc1ccc(C)c(C)c1, the surface tension liquid-gas in series [1] (x1 = 1) turned out to be 27.04 ± 0.29 mN/m.
Same read-out and setting: for `ClC(Cl)(Cl)Cl` [tetrachloromethane] + Cc1ccc(C)c(C)c1 the value was 26.76 ± 0.29 mN/m.
For `C1CCOC1` [tetrahydrofuran] + Cc1cc(C)cc(C)c1, in series [1] (x1 = 1), the surface tension liquid-gas is recorded as 27.04 ± 0.29 mN/m.
With `C[S+](C)[O-]` [dimethyl sulfoxide], in series [2], the surface tension liquid-gas is on record as 42.09 ± 0.43 mN/m and the mass density is 1095.54 ± 0.42 kg/m3.
For the compound `Cc1cc(C)cc(C)c1` [1,3,5-trimethylbenzene] + ClC(Cl)(Cl)Cl, in series [1] (x1 = 1), the surface tension liquid-gas is given as 26.76 ± 0.3 mN/m.
Take `Cc1ccc(C)c(C)c1` [1,2,4-trimethylbenzene]: in series [2], the surface tension liquid-gas worked out at 29.25 ± 0.33 mN/m and the mass density came to 871.64 ± 0.41 kg/m3.
Turning to `C[S+](C)[O-]` [dimethyl sulfoxide] + Cc1ccc(C)c(C)c1, the surface tension liquid-gas in series [1] (x1 = 1) was found to be 42.09 ± 0.43 mN/m.
